Key:
[1] = Thermodynamic stability of the solid state forms; type: physicochemical; details: at least in the relevant temperature range below 600 / below 60° C.
[2] = system: DU-145 Human Prostate Carcinoma; assay: DU-145 human prostate carcinoma model in nude mice; type: in vivo; details: orally 10, 20 or 30 mg/kg in 30% HPβCD, tumor growth determined 27 to 56 days after tumor transplantation, versus vehicle control
Experimental: The active compound was applied in 30% HPβCD. As control, a vehicle of DMSO/ethanol 1.1 in 0.085% Myrj/NaCl/30% HPβCD was used. The tumor growth was determined after 27 to 56 days after tumor transplantation.

| SMILES | thermodynamic stability of the polymorph [1] | tumor growth [2] |
| --- | --- | --- |
| Nc1ccccc1NC(=O)c1ccc(CNC(=O)OCc2cccnc2)cc1 [polymorph A, N-(2-aminophenyl)-4-[N-(pyridine-3-yl)methoxycarbonylamino-methyl]benzamide, reference compound] | not the thermodynamically stable polymorph | – |
| Nc1ccccc1NC(=O)c1ccc(CNC(=O)OCc2cccnc2)cc1 [polymorph B, N-(2-aminophenyl)-4-[N-(pyridine-3-yl)methoxy-carbonylamino-methyl]benzamide] | thermodynamically stable polymorph | clear inhibition |
